The text below walks through data of ChEMBL document CHEMBL1201862, “PubChem BioAssay data set” (2004).

Molecules are shown by their SMILES.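 Five compound concentrations were applied to cells in 96-well plates for 48 hours; endpoints were derived by simple linear interpolation of the resulting dose-response curve. GI50 is the concentration that inhibits growth by half.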 Calls of active or inactive are those of the source. Rule as the data show it: active = GI50 up to about 1.1 µM and inactive = higher. A value given as a limit tells only on which side of the number the result lay.

Some test systems named below: CCRF-CEM; OVCAR-3; UACC-257; OVCAR-5; OVCAR-4; SR; SNB-19; U-251; T47D; NCI/ADR-RES; SK-OV-3; HCT-116; Malme-3M; HOP-62; CAKI-1; NCI-H23; SF-539; A498; IGROV-1; SNB-75.
Holding throughout (test): NCI-60 cell line screen, 48 h

For `O=[N+]([O-])c1cc(Br)cc2cc(Cl)cnc12`, the GI50 in the assay with CCRF-CEM, with OVCAR-3, in the assay on UACC-257, in the assay on OVCAR-5, in the assay on OVCAR-4 and in the assay with SR was > 100 µM (inactive) each time. For the same compound, the GI50 with SNB-19 is > 100 µM (inactive); with U-251 it was > 100 µM (inactive); with T47D it was 39.8 µM (inactive); in the assay with NCI/ADR-RES, > 100 µM (inactive); in the assay with SK-OV-3 it was 86.9 µM (inactive); with HCT-116, > 100 µM (inactive). Besides, the GI50 is > 100 µM (inactive) in the assay with Malme-3M; > 100 µM (inactive) in the assay with HOP-62; > 100 µM (inactive) in the assay with CAKI-1; > 100 µM (inactive) with NCI-H23; > 100 µM (inactive) in the assay with SF-539; 75.7 µM (inactive) with A498. In addition, the GI50 is 10.1 µM (inactive) in the assay with IGROV-1 and 31.8 µM (inactive) in the assay with SNB-75.
On to `O=C1c2cccnc2-c2nccc3c2c1nc1ccc(Br)cc13`, for which the GI50 in the assay on CCRF-CEM was < 0.01 µM (active); with OVCAR-3, 0.0207 µM (active); with UACC-257, 0.0536 µM (active); in the assay with OVCAR-5 it was 0.106 µM (active); in the assay with OVCAR-4 it was 0.061 µM (active); in the assay on SR, 0.012 µM (active). Besides, the GI50 with SNB-19 is 0.136 µM (active); with U-251 it was 0.0363 µM (active); in the assay on T47D it was 0.0789 µM (active); with NCI/ADR-RES, 0.034 µM (active); in the assay with SK-OV-3, 0.145 µM (active); in the assay on HCT-116, < 0.0136 µM (active). Besides, the GI50 was 0.102 µM (active) with Malme-3M; 0.031 µM (active) in the assay with HOP-62; 0.0536 µM (active) with CAKI-1; 0.0313 µM (active) in the assay on NCI-H23; 0.0601 µM (active) in the assay with SF-539; 0.0853 µM (active) in the assay on A498. Further, the GI50 in the assay on IGROV-1 was 0.038 µM (active); in the assay on SNB-75 it was 0.129 µM (active).
Regarding `CSc1ncc2c(C#N)c3ccccn3c(=O)c2n1`, the GI50 with CCRF-CEM, with OVCAR-3, in the assay with UACC-257, in the assay on OVCAR-5, in the assay on OVCAR-4 and in the assay with SR was > 100 µM (inactive) each time. For the same compound, the GI50 is > 100 µM (inactive) with SNB-19; > 100 µM (inactive) with U-251; > 100 µM (inactive) with T47D; > 100 µM (inactive) in the assay with NCI/ADR-RES; > 100 µM (inactive) with SK-OV-3; 88.5 µM (inactive) in the assay on HCT-116. Besides, the GI50 in the assay with Malme-3M, with HOP-62, in the assay on CAKI-1, in the assay on NCI-H23, in the assay with SF-539 and with A498 was > 100 µM (inactive) in each case. Also, the GI50 in the assay with IGROV-1 and in the assay on SNB-75 was > 100 µM (inactive) each time.
On to `CN(CCNC(=O)c1n[nH]c2c1ccc1ccccc12)CCNC(=O)c1n[nH]c2c1ccc1ccccc12`, for which the GI50 in the assay on CCRF-CEM is 2.2 µM (inactive); in the assay on OVCAR-3, 2.05 µM (inactive); with UACC-257, 24.4 µM (inactive); in the assay with OVCAR-5 it was 1.81 µM (inactive); in the assay with OVCAR-4, 1.82 µM (inactive); with SR it was 1.78 µM (inactive). Moreover, the GI50 with SNB-19 is 1.89 µM (inactive); in the assay on U-251, 1.93 µM (inactive); in the assay with T47D it was 2.42 µM (inactive); in the assay on NCI/ADR-RES, > 100 µM (inactive); in the assay with SK-OV-3 it was 4.79 µM (inactive); in the assay on HCT-116 it was 2.13 µM (inactive). Besides, the GI50 in the assay on Malme-3M is 1.9 µM (inactive); in the assay on HOP-62, 2.11 µM (inactive); in the assay with CAKI-1, 8.73 µM (inactive); in the assay with NCI-H23, 1.96 µM (inactive); in the assay on SF-539, 1.79 µM (inactive); with A498 it was 7.28 µM (inactive). The GI50 with IGROV-1 is 1.77 µM (inactive); with SNB-75, 1.85 µM (inactive).
With `C=CC[C@]12C[C@@H](C(=O)OC)N(C(=O)OC)[C@H]1N(S(=O)(=O)c1ccccc1)c1ccccc12`, the GI50 in the assay with CCRF-CEM is 82.6 µM (inactive); in the assay on OVCAR-3, 87.9 µM (inactive); in the assay on UACC-257 it was 45.7 µM (inactive); with OVCAR-5 it was 31.4 µM (inactive); in the assay on OVCAR-4, 47.1 µM (inactive); in the assay with SR, 38.4 µM (inactive). The GI50 with SNB-19 was > 100 µM (inactive); in the assay with U-251, 61.9 µM (inactive); in the assay with T47D it was 30.9 µM (inactive); in the assay with NCI/ADR-RES, 68.2 µM (inactive); in the assay on SK-OV-3, 35.6 µM (inactive); with HCT-116 it was 62.2 µM (inactive). In addition, the GI50 in the assay on Malme-3M was 91.8 µM (inactive); in the assay on HOP-62, > 100 µM (inactive); in the assay on CAKI-1, > 100 µM (inactive); in the assay on NCI-H23 it was 34.1 µM (inactive); in the assay with SF-539, > 100 µM (inactive); in the assay with A498, 81.1 µM (inactive). Besides, the GI50 in the assay with IGROV-1 was 43.1 µM (inactive); in the assay with SNB-75 it was 21.5 µM (inactive).
